From ChEMBL document CHEMBL1139959, “Optimization of triaryl bis-sulfones as cannabinoid-2 receptor ligands” (Bioorg Med Chem Lett, 2007)

Key:
Homo sapiens = organism: Homo sapiens; assay: Selectivity for CB1 receptor over CB2 receptor
[1] = target: Cannabinoid receptor 2 (Homo sapiens) (UniProt P34972); assay: Binding affinity to CB2 receptor
in vivo = settings: rat, plasma, po, 10 mg/kg
Description: AUC in rat at 10 mg/kg, po after 6 hrs

Cannabinoid receptor 2 (Homo sapiens), sequence (P34972 whole entry, looked up): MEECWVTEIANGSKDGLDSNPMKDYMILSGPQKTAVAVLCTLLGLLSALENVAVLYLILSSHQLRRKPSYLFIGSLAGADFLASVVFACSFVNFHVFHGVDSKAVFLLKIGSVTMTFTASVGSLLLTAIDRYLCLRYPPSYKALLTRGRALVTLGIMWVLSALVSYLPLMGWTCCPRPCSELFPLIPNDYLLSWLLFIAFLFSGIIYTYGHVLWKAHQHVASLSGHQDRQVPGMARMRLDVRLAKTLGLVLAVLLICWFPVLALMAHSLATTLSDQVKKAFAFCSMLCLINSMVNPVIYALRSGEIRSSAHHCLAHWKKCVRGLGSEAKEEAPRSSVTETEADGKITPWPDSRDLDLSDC

SMILES	Ratio Ki (Homo sapiens)	Ki [1] [nM]	AUC at 6 h (in vivo) [µM·h]
C[C@H](NS(C)(=O)=O)c1ccc(S(=O)(=O)c2ccc(Cl)cc2S(=O)(=O)c2cccc3cccnc23)cc1	31	–	–
C[C@H](NS(=O)(=O)C(F)(F)F)c1ccc(S(=O)(=O)c2ccc(Cl)cc2S(=O)(=O)NC(C)(C)C)cc1	123	136	–
C[C@H](NS(=O)(=O)C(F)(F)F)c1ccc(S(=O)(=O)c2ccc(N)cc2S(=O)(=O)c2ccccc2F)cc1	170	–	–
C[C@H](NS(=O)(=O)C(F)(F)F)c1ccc(S(=O)(=O)c2ccc(NC3CC3)cc2S(=O)(=O)c2ccccc2F)cc1	66	4.9	–
C[C@H](NS(=O)(=O)C(F)(F)F)c1ccc(S(=O)(=O)c2ccc(C(F)(F)F)cc2S(=O)(=O)c2ccccc2F)cc1	2080	–	–
C[C@H](NS(=O)(=O)C(F)(F)F)c1ccc(S(=O)(=O)c2ccc(C3CC3)cc2S(=O)(=O)c2ccccc2F)cc1	2240	1.4	–
C[C@H](N)c1ccc(S(=O)(=O)c2ccc(Cl)cc2S(=O)(=O)c2ccccc2F)cc1	14	–	–
C[C@H](NS(C)(=O)=O)c1ccc(S(=O)(=O)c2ccc(Cl)cc2S(=O)(=O)c2ccccc2F)cc1	4390	–	6.33
C[C@H](NS(C)(=O)=O)c1ccc(S(=O)(=O)c2ccc(Cl)cc2S(=O)(=O)N(C)C)cc1	58	–	–
C[C@H](NS(=O)(=O)C(F)(F)F)c1ccc(S(=O)(=O)c2ccc(Cl)cc2S(=O)(=O)c2ccccn2)cc1	1150	3.6	–
CNS(=O)(=O)c1cc(Cl)ccc1S(=O)(=O)c1ccc([C@H](C)NS(C)(=O)=O)cc1	64	–	–
CCNC(=O)N[C@@H](C)c1ccc(S(=O)(=O)c2ccc(Cl)cc2S(=O)(=O)c2ccccc2F)cc1	–	> 10000	–
C[C@H](NS(=O)(=O)C(F)(F)F)c1ccc(S(=O)(=O)c2ccc(Cl)cc2S(=O)(=O)c2c(F)cccc2N(C)C)cc1	60	115	–
C[C@H](NS(=O)(=O)C(F)(F)F)c1ccc(S(=O)(=O)c2ccc(O)cc2S(=O)(=O)c2ccccc2F)cc1	1570	–	–
C[C@H](NS(C)(=O)=O)c1ccc(S(=O)(=O)c2ccc(Cl)cc2S(=O)(=O)c2ccccn2)cc1	4400	–	–
C[C@H](NS(=O)(=O)C(F)(F)F)c1ccc(S(=O)(=O)c2ccccc2S(=O)(=O)c2ccccc2F)cc1	426	–	–
C[C@H](NC(=O)C(F)(F)F)c1ccc(S(=O)(=O)c2ccc(Cl)cc2S(=O)(=O)c2ccccc2F)cc1	784	–	–
C[C@H](NS(C)(=O)=O)c1ccc(S(=O)(=O)c2ccc(Cl)cc2S(=O)(=O)c2cccc[n+]2[O-])cc1	840	–	–
C[C@H](NCCC(F)(F)F)c1ccc(S(=O)(=O)c2ccc(Cl)cc2S(=O)(=O)c2ccccc2F)cc1	105	–	–

SMILES	Ratio Ki (Homo sapiens)	Ki [1] [nM]	AUC at 6 h (in vivo) [µM·h]
CNc1cccc(F)c1S(=O)(=O)c1cc(Cl)ccc1S(=O)(=O)c1ccc([C@H](C)NS(=O)(=O)C(F)(F)F)cc1	212	–	–
C[C@H](NS(=O)(=O)C(F)(F)F)c1ccc(S(=O)(=O)c2ccc(Cl)cc2S(=O)(=O)c2c(N)cccc2F)cc1	1190	–	–
Cc1ccc(S(=O)(=O)c2ccc([C@H](C)NS(=O)(=O)C(F)(F)F)cc2)c(S(=O)(=O)c2ccccc2F)c1	2290	1.1	–
C[C@H](NS(=O)(=O)C(F)(F)F)c1ccc(S(=O)(=O)c2ccc(Cl)cc2S(=O)(=O)c2c(F)cccc2F)cc1	642	5.8	–
C[C@H](NS(=O)(=O)C(F)(F)F)c1ccc(S(=O)(=O)c2ccc(Cl)cc2S(=O)(=O)N2CCCCC2)cc1	231	58	–
CCOc1ccc(S(=O)(=O)c2ccc([C@H](C)NS(=O)(=O)C(F)(F)F)cc2)c(S(=O)(=O)c2ccccc2F)c1	1960	0.9	–
Cc1occc1S(=O)(=O)c1cc(Cl)ccc1S(=O)(=O)c1ccc([C@H](C)NS(C)(=O)=O)cc1	538	129	–
C[C@H](NS(=O)(=O)C(F)(F)F)c1ccc(S(=O)(=O)c2ccc(Cl)cc2S(=O)(=O)N2CCOCC2)cc1	99	192	–
CC(=O)N[C@@H](C)c1ccc(S(=O)(=O)c2ccc(Cl)cc2S(=O)(=O)c2ccccc2F)cc1	250	60.7	–
C[C@H](NS(C)(=O)=O)c1ccc(S(=O)(=O)c2ccc(Cl)cc2S(=O)(=O)C2CCCCC2)cc1	345	8.9	–
C[C@H](NCC(F)(F)F)c1ccc(S(=O)(=O)c2ccc(Cl)cc2S(=O)(=O)c2ccccc2F)cc1	325	–	–
C[C@H](NS(=O)(=O)C(F)(F)F)c1ccc(S(=O)(=O)c2ccc(Cl)cc2S(=O)(=O)c2ncccn2)cc1	859	21	–
C[C@H](NS(=O)(=O)C(F)(F)F)c1ccc(S(=O)(=O)c2ccc(OC(F)(F)F)cc2S(=O)(=O)c2ccccc2F)cc1	525	–	–
C[C@H](NS(=O)(=O)C(F)(F)F)c1ccc(S(=O)(=O)c2ccc(Cl)cc2S(=O)(=O)c2c(F)cccc2NC2CC2)cc1	688	14.4	–
CCCS(=O)(=O)c1cc(Cl)ccc1S(=O)(=O)c1ccc([C@H](C)NS(C)(=O)=O)cc1	57	–	–
C[C@H](NS(=O)(=O)C(F)(F)F)c1ccc(S(=O)(=O)c2ccc(Cl)cc2S(=O)(=O)c2c(F)cccc2N2CCOCC2)cc1	18	–	–
C[C@H](NS(C)(=O)=O)c1ccc(S(=O)(=O)c2ccc(Cl)cc2S(=O)(=O)NS(C)(=O)=O)cc1	36	2750	–
C[C@H](NS(=O)(=O)C(F)(F)F)c1ccc(S(=O)(=O)c2ccc(N3CCNCC3)cc2S(=O)(=O)c2ccccc2F)cc1	31	–	–
COCCOc1ccc(S(=O)(=O)c2ccc([C@H](C)NS(=O)(=O)C(F)(F)F)cc2)c(S(=O)(=O)c2ccccc2F)c1	1600	2.5	–
